Patent US20250257055A1, “TERTIARY AMIDE DERIVATIVES SUBSTITUTED WITH 4-MEMBERED RING STRUCTURE” (Sumitomo Pharma Co., Ltd., priority 2024, published 2025)
Where two headings read alike, the source gives them in different places.

Experiments:
[1] = test system: G-401 cells; experiment: Cell proliferation inhibition experiment using G-401 cells; assay type: cell-based; details: Homo sapiens, 72 h, cultured for 3 days, CellTiter-Glo
Description: G-401 cells (derived from malignant rhabdoid tumor) were obtained from the American Type Culture Collection (ATCC). G-401 cells were cultured in McCoy's 5A medium containing 10% fetal bovine serum and 1% penicillin/streptomycin under conditions of 37° C. and 5% CO2.
500 cells per well were seeded in a 384-well plate. One day after seeding, Examples 1 to 35 were added so that the final concentration of DMSO was 0.1%, and the cells were cultured for 3 days. After the culture was completed, the cell viability was measured using CellTiter-Glo Luminescent Cell Viability Assay (Promega, G7570).

[2] = Membrane permeability test (PAMPA); assay type: in vitro ADME
Description: The membrane permeability of the test compound was tested by parallel artificial membrane permeability assay (PAMPA) as follows. 200 μL of System solution (pION Inc.) containing the test compound and 4 μL of GIT Lipid-0 (pION Inc.) were added to the donor plate. 200 μL of Acceptor Sink Buffer (pION Inc.) was added to the acceptor plate. Both plates were overlapped and incubated at 37° C. for 4 hours, after which the UV of the solutions on the acceptor side and donor side was measured using a UV plate reader (190-500 nm). Compounds with poor UV absorption were measured using LC-MS. The permeability coefficient Pe (10^−6 cm/sec) of the drug was calculated using the following equation.

[3] = biological target: recombinant p300 (Homo sapiens (Human), UniProt Q09472); experiment: HAT activity inhibition experiment (SensoLyte HAT(p300) Assay Kit); assay type: biochemical; details: recombinant p300, histone H3 peptide, acetyl CoA
Chain of recombinant p300 (Q09472 whole entry): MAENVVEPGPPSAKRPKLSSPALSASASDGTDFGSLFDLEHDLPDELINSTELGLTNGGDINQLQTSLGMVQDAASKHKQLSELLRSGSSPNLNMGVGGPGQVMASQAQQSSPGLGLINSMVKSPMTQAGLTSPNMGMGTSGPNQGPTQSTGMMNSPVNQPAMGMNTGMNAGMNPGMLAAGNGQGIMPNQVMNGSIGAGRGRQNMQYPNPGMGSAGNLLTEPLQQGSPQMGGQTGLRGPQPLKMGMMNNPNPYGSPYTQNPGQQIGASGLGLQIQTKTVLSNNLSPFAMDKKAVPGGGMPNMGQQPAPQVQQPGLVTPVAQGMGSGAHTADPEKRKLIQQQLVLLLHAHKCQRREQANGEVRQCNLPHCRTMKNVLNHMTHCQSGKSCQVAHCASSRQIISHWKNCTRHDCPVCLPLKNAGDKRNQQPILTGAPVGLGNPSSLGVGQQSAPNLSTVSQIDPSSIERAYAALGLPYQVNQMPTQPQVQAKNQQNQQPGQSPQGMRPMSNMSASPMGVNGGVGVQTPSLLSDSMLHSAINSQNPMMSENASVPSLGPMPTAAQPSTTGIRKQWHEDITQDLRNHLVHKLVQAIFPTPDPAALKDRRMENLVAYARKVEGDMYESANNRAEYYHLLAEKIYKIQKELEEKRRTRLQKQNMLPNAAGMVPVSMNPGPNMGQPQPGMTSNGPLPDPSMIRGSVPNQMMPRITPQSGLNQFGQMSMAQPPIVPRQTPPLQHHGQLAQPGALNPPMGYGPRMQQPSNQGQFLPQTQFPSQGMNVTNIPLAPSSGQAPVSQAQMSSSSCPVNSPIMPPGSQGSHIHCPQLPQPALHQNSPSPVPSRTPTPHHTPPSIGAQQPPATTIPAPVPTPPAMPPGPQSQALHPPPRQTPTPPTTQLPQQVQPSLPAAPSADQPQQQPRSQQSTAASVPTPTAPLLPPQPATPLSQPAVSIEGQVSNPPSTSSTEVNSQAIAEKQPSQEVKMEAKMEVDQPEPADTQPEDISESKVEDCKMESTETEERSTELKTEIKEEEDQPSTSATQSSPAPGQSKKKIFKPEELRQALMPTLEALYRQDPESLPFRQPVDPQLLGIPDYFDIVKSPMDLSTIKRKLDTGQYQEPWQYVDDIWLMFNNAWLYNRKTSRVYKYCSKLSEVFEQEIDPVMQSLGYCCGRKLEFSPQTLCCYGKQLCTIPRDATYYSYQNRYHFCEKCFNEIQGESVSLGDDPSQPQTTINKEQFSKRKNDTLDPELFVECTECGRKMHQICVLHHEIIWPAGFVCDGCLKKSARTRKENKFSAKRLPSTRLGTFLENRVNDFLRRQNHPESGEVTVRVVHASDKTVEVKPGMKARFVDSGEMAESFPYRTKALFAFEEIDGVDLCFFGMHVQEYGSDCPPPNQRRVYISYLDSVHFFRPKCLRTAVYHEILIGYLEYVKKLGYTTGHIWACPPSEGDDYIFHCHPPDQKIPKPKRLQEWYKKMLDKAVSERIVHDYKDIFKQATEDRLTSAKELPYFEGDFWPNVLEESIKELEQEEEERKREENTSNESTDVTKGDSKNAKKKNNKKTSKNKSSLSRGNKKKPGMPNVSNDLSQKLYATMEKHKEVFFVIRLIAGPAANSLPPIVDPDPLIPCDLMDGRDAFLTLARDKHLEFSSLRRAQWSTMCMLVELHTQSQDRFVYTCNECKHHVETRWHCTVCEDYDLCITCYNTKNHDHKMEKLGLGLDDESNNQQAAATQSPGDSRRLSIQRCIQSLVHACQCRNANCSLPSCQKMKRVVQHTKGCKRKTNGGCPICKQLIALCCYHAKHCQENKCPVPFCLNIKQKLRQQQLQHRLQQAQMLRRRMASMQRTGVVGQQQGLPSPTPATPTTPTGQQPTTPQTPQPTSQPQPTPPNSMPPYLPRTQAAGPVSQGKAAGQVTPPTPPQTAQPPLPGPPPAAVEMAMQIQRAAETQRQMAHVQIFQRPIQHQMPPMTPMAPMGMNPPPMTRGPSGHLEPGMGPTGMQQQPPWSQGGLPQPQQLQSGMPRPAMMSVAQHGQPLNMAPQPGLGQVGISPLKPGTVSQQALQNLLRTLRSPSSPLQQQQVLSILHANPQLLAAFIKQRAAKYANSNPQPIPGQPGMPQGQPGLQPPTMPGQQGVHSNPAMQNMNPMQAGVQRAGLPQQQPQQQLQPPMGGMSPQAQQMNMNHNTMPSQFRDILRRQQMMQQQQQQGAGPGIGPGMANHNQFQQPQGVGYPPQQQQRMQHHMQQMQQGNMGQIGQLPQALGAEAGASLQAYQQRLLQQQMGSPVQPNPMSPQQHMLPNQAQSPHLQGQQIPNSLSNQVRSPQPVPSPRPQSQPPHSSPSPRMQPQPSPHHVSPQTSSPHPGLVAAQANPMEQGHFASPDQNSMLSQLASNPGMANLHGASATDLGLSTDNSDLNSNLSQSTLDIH
Description: The HAT activity inhibitory ability of HAT inhibitors was evaluated using SensoLyte HAT(p300) Assay Kit (ANASPEC, AS-72172). Specifically, 7.5 μL of the compound of Examples […] diluted with assay buffer was added to 7.5 μL of recombinant p300 solution diluted 10 times with assay buffer, and the mixture was incubated at room temperature for 10 minutes. 7.5 μL of acetyl CoA solution diluted 10 times with assay buffer and 15 μL of histone H3 peptide diluted 10 times with assay buffer were added thereto, and the mixture was incubated at 37° C. for 30 minutes. 37.5 μL of Stop Solution was added to stop the reaction. 75 μL of p300 Developer solution diluted 50 times with assay buffer was added, and the mixture was incubated at room temperature for 30 minutes under light-shielded conditions. The fluorescence at 513 nm when irradiated with 389 nm excitation light was measured using a multiplate reader.

[4] = pH 5.0, 37° C., read-out: pH 5.0 Pe
[5] = pH 7.4, 37° C., read-out: pH 7.4 Pe

SMILES | Papp at 4 h [2, 4] | Papp at 4 h [2, 5] | IC50 [3] | IC50 [1]
O=C1N[C@]2(CCc3cc(-c4cnn(C5CN(C6COC6)C5)c4)ccc32)C(=O)N1CC(=O)N(Cc1ccc(F)cn1)C1(C(F)(F)F)COC1 [Example 6, N-[(5-fluoropyridin-2-yl)methyl]-2-[(1′S)-5′-{1-[1-(oxetan-3-yl)azetidin-3-yl]-1H-pyrazol-4-yl}-2,5-dioxo-2′,3′-dihydrospiro[imidazolidine-4,1′-inden]-1-yl]-N-[3-(trifluoromethyl)oxetan-3-yl]acetamide] | 3.1 ×10⁻⁶ cm/s | 5.5 ×10⁻⁶ cm/s | 19.8 nM | 391 nM
CN1CC(N(Cc2ccc(F)cn2)C(=O)CN2C(=O)N[C@]3(C[C@@H](F)c4cc(-c5cnn(C(C)(C)C#N)c5)ccc43)C2=O)(C(F)(F)F)C1 [Example 26, 2-{(1′S,3′R)-5′-[1-(2-cyanopropan-2-yl)-1H-pyrazol-4-yl]-3′-fluoro-2,5-dioxo-2′,3′-dihydrospiro[imidazolidine-4,1′-inden]-1-yl}-N-[(5-fluoropyridin-2-yl)methyl]-N-[1-methyl-3-(trifluoromethyl)azetidin-3-yl]acetamide] | 10.2 ×10⁻⁶ cm/s | 16.3 ×10⁻⁶ cm/s | 9.2 nM | 14 nM
CN1CCn2ncc(-c3ccc4c(c3)[C@H](F)C[C@]43NC(=O)N(CC(=O)N(Cc4ccc(F)cc4)C4(C(F)(F)F)COC4)C3=O)c2C1 [Example 14, 2-[(1′S, 3′R)-3′-fluoro-5′-(5-methyl-4,5,6,7-tetrahydropyrazolo[1,5-a]pyrazin-3-yl)-2,5-dioxo-2′,3′-dihydrospiro[imidazolidine-4,1′-inden]-1-yl]-N-[(4-fluorophenyl)methyl]-N-[3-(trifluoromethyl)oxetan-3-yl]acetamide] | 26.1 ×10⁻⁶ cm/s | 27.9 ×10⁻⁶ cm/s | 124 nM | 677 nM
CN1CC(N(Cc2ccc(F)cc2)C(=O)CN2C(=O)N[C@]3(C[C@@H](F)c4cc(-c5cnn(C)c5)c(F)cc43)C2=O)(C(F)(F)F)C1 [Example 29, 2-[(1′S,3′R)-3′,6′-difluoro-5′-(1-methyl-1H-pyrazol-4-yl)-2,5-dioxo-2′,3′-dihydrospiro[imidazolidine-4,1′-inden]-1-yl]-N-[(4-fluorophenyl)methyl]-N-[1-methyl-3-(trifluoromethyl)azetidin-3-yl]acetamide] | 23.9 ×10⁻⁶ cm/s | 28.3 ×10⁻⁶ cm/s | 2.8 nM | 17 nM
CN1CC(N(Cc2ccc(F)cc2)C(=O)CN2C(=O)N[C@]3(C[C@@H](F)c4cc(-c5cnn(C6CCOCC6)c5)ccc43)C2=O)(C(F)(F)F)C1 [Example 19, 2-{(1′S,3′R)-3′-fluoro-5′-[1-(oxan-4-yl)-1H-pyrazol-4-yl]-2,5-dioxo-2′,3′-dihydrospiro[imidazolidine-4,1′-inden]-1-yl}-N-[(4-fluorophenyl)methyl]-N-[1-methyl-3-(trifluoromethyl)azetidin-3-yl]acetamide] | 24.4 ×10⁻⁶ cm/s | 28.9 ×10⁻⁶ cm/s | 7.2 nM | 24 nM
O=C1N[C@]2(CCc3cc(-c4cnn(C5CN(C6COC6)C5)c4)ccc32)C(=O)N1CC(=O)N(Cc1ccc(F)cn1)C1(C(F)(F)F)CC(F)(F)C1 [Example 8, N-[3,3-difluoro-1-(trifluoromethyl)cyclobutyl]-N-[(5-fluoropyridin-2-yl)methyl]-2-[(1′S)-5′-{1-[1-(oxetan-3-yl)azetidin-3-yl]-1H-pyrazol-4-yl}-2,5-dioxo-2′,3′-dihydrospiro[imidazolidine-4,1′-inden]-1-yl]acetamide] | 13.5 ×10⁻⁶ cm/s | 14.3 ×10⁻⁶ cm/s |  | 247 nM
CN1CC(N(Cc2ccc(F)cn2)C(=O)CN2C(=O)N[C@]3(C[C@@H](F)c4cc(-c5cnn(C(C)(C)CO)c5)ccc43)C2=O)(C(F)(F)F)C1 [Example 27, 2-{(1′S,3′R)-3′-fluoro-5′-[1-(1-hydroxy-2-methylpropan-2-yl)-1H-pyrazol-4-yl]-2,5-dioxo-2′,3′-dihydrospiro[imidazolidine-4,1′-inden]-1-yl}-N-[(5-fluoropyridin-2-yl)methyl]-N-[1-methyl-3-(trifluoromethyl)azetidin-3-yl]acetamide] | 0.6 ×10⁻⁶ cm/s | 3.5 ×10⁻⁶ cm/s | 6.8 nM | 22 nM
CN1CC(N(Cc2ccc(F)cc2)C(=O)CN2C(=O)N[C@@]3(C[C@H](F)c4cc(-c5cnn(C)c5)c(F)cc43)C2=O)(C(F)(F)F)C1 [Example 28, 2-[(1′R,3'S)-3′,6′-difluoro-5′-(1-methyl-1H-pyrazol-4-yl)-2,5-dioxo-2′,3′-dihydrospiro[imidazolidine-4,1′-inden]-1-yl]-N-[(4-fluorophenyl)methyl]-N-[1-methyl-3-(trifluoromethyl)azetidin-3-yl]acetamide] | 25.7 ×10⁻⁶ cm/s | 30 ×10⁻⁶ cm/s |  | 

Now from value to compound, other results behind:

Papp at 4 h [2, 4] | Papp at 4 h [2, 5] | IC50 [3] | SMILES | IC50 [1]
7.4 ×10⁻⁶ cm/s | 19 ×10⁻⁶ cm/s | 19 nM | CN1CC(F)(Cn2cc(-c3ccc4c(c3)CC[C@]43NC(=O)N(CC(=O)N(Cc4ccc(F)cc4)C4(C(F)(F)F)COC4)C3=O)cn2)C1 [Example 2, 2-[(1′S)-5′-{1-[(3-fluoro-1-methylazetidin-3-yl)methyl]-1H-pyrazol-4-yl}-2,5-dioxo-2′,3′-dihydrospiro[imidazolidine-4,1′-inden]-1-yl]-N-[(4-fluorophenyl)methyl]-N-[3-(trifluoromethyl)oxetan-3-yl]acetamide] | 89 nM
6.2 ×10⁻⁶ cm/s | 21.2 ×10⁻⁶ cm/s | 52 nM | CN1CC(N(Cc2ccc(F)cn2)C(=O)CN2C(=O)N[C@]3(CCc4cc(-c5cnn(C)c5)ccc43)C2=O)(C(F)(F)F)C1 [Example 21, N-[(5-fluoropyridin-2-yl)methyl]-2-[(1′S)-5′-(1-methyl-1H-pyrazol-4-yl)-2,5-dioxo-2′,3′-dihydrospiro[imidazolidine-4,1′-inden]-1-yl]-N-[1-methyl-3-(trifluoromethyl)azetidin-3-yl]acetamide] | 353 nM
28.6 ×10⁻⁶ cm/s | 31.8 ×10⁻⁶ cm/s | 58.2 nM | CN1CC(N(Cc2ccc(F)cc2)C(=O)CN2C(=O)N[C@]3(CCc4cc(-c5cn(C)nc5F)ccc43)C2=O)(C(F)(F)F)C1 [Example 18, 2-[(1′S)-5′-(3-fluoro-1-methyl-1H-pyrazol-4-yl)-2,5-dioxo-2′,3′-dihydrospiro[imidazolidine-4,1′-inden]-1-yl]-N-[(4-fluorophenyl)methyl]-N-[1-methyl-3-(trifluoromethyl)azetidin-3-yl]acetamide] | 292 nM
26.2 ×10⁻⁶ cm/s | 26.9 ×10⁻⁶ cm/s | 5.2 nM | CN1CC(N(Cc2ccc(F)cc2)C(=O)CN2C(=O)N[C@]3(CCc4cc(-c5cnn(C(C)(C)C#N)c5)ccc43)C2=O)(C(F)(F)F)C1 [Example 13, 2-{(1′S)-5′-[1-(2-cyanopropan-2-yl)-1H-pyrazol-4-yl]-2,5-dioxo-2′,3′-dihydrospiro[imidazolidine-4,1′-inden]-1-yl}-N-[(4-fluorophenyl)methyl]-N-[1-methyl-3-(trifluoromethyl)azetidin-3-yl]acetamide] | 20 nM
28.1 ×10⁻⁶ cm/s | 32.2 ×10⁻⁶ cm/s | 2.3 nM | CN1CC(N(Cc2ccc(F)cc2)C(=O)CN2C(=O)N[C@]3(C[C@@H](F)c4cc(-c5cn(C)nc5F)ccc43)C2=O)(C(F)(F)F)C1 [Example 17, 2-[(1′S,3′R)-3′-fluoro-5′-(3-fluoro-1-methyl-1H-pyrazol-4-yl)-2,5-dioxo-2′,3′-dihydrospiro[imidazolidine-4,1′-inden]-1-yl]-N-[(4-fluorophenyl)methyl]-N-[1-methyl-3-(trifluoromethyl)azetidin-3-yl]acetamide] | 25 nM
29.2 ×10⁻⁶ cm/s | 32 ×10⁻⁶ cm/s | 53.6 nM | CN1CC(N(Cc2ccc(F)cc2)C(=O)CN2C(=O)N[C@]3(CCc4cc(-c5cnn(C)c5F)ccc43)C2=O)(C(F)(F)F)C1 [Example 16, 2-[(1′S)-5′-(5-fluoro-1-methyl-1H-pyrazol-4-yl)-2,5-dioxo-2′,3′-dihydrospiro[imidazolidine-4,1′-inden]-1-yl]-N-[(4-fluorophenyl)methyl]-N-[1-methyl-3-(trifluoromethyl)azetidin-3-yl]acetamide] | 310 nM
30 ×10⁻⁶ cm/s | 33.3 ×10⁻⁶ cm/s | 6.1 nM | CN1CC(N(Cc2ccc(F)cc2)C(=O)CN2C(=O)N[C@]3(C[C@@H](F)c4cc(-c5cnn(C)c5F)ccc43)C2=O)(C(F)(F)F)C1 [Example 15, 2-[(1′S,3′R)-3′-fluoro-5′-(5-fluoro-1-methyl-1H-pyrazol-4-yl)-2,5-dioxo-2′,3′-dihydrospiro[imidazolidine-4,1′-inden]-1-yl]-N-[(4-fluorophenyl)methyl]-N-[1-methyl-3-(trifluoromethyl)azetidin-3-yl]acetamide] | 33 nM
